Among the test systems are A498; A549; CAKI-1; HCT-116; HL-60; K562; KM12; Malme-3M; NCI-H23; NCI-H460; OVCAR-8; SF-539; SNB-19; SR; TK-10; U-251; OVCAR-4.
What all share (test): NCI anticancer screen, dose series, 48 h

Structures are written as SMILES.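 How tested: cells in 96-well plates exposed to compound for 48 hours at five concentrations. Abbreviation: GI50, concentration required for 50% inhibition of growth.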 Active and inactive are the calls of the source. Rule as the data show it: active = GI50 up to about 1.1 µM and inactive = higher.

`Cc1cc(=O)oc2c(C)c(OCCCOc3ccc4c(C)cc(=O)oc4c3C)ccc12`: the GI50 with A498, in the assay on A549, with CAKI-1, in the assay on HCT-116, in the assay on HL-60 and in the assay on K562 was > 100 µM (inactive) each time. Also, the GI50 with KM12, in the assay on Malme-3M, in the assay on NCI-H23, in the assay on NCI-H460, in the assay with OVCAR-8 and in the assay with SF-539 was > 100 µM (inactive) throughout. The GI50 with SNB-19, in the assay with SR, in the assay with TK-10 and with U-251 was > 100 µM (inactive) in each case.

For the compound `CNc1ccc(/C=C2\C=Cc3ccccc32)cc1`, the GI50 in the assay on A498 is 28.1 µM (inactive); in the assay with A549, 24 µM (inactive); in the assay with CAKI-1 it was 30.1 µM (inactive); in the assay with HCT-116, 33.1 µM (inactive); with HL-60, 4.45 µM (inactive); in the assay with K562, 32 µM (inactive). Also, the GI50 in the assay with KM12 is 12.7 µM (inactive); in the assay on NCI-H23, 16.7 µM (inactive); with NCI-H460, 16.6 µM (inactive); in the assay with OVCAR-4, 26.8 µM (inactive); in the assay on OVCAR-8, 64.3 µM (inactive); with SF-539, 93.3 µM (inactive). The GI50 was 61.4 µM (inactive) in the assay on SNB-19, 53.2 µM (inactive) in the assay on SR, 23.9 µM (inactive) in the assay with TK-10 and 32.4 µM (inactive) in the assay on U-251.

Take `C=C1C(=O)OC2/C=C(\C=O)CC/C=C(\C)C(O)C[C@@H]12` (some centres undefined): the GI50 in the assay on A498 is 10.2 µM (inactive); in the assay on A549, 16.1 µM (inactive); in the assay on CAKI-1 it was > 10 µM (inactive); in the assay with HCT-116, 1.68 µM (inactive); in the assay with HL-60, 2.86 µM (inactive); in the assay on K562, 3.33 µM (inactive). Further, the GI50 in the assay with KM12 is 5.77 µM (inactive); in the assay on Malme-3M, 5.07 µM (inactive); in the assay with NCI-H23, 5.18 µM (inactive); in the assay on NCI-H460, 13.3 µM (inactive); with OVCAR-4, 14.1 µM (inactive); with OVCAR-8, 3.17 µM (inactive). Moreover, the GI50 with SF-539 is 14.2 µM (inactive); in the assay on SNB-19 it was 15.4 µM (inactive); in the assay on SR, 2.8 µM (inactive); in the assay with TK-10, 12.3 µM (inactive); with U-251 it was 18.8 µM (inactive).

On to `FC(F)(F)C1(Br)C(c2ccccc2)=C1c1ccccc1`, for which the GI50 in the assay with A549 was 17.7 µM (inactive); in the assay on CAKI-1, 23.8 µM (inactive); in the assay with HCT-116, 6.7 µM (inactive); in the assay with HL-60, 7.28 µM (inactive); in the assay with K562, 7.14 µM (inactive); with KM12 it was 15.8 µM (inactive). Moreover, the GI50 in the assay on Malme-3M is 15.8 µM (inactive); in the assay with NCI-H23 it was 16.6 µM (inactive); with NCI-H460, 24.7 µM (inactive); with OVCAR-4, 18.8 µM (inactive); in the assay with OVCAR-8, 15 µM (inactive); with SF-539, 17.9 µM (inactive). For the same compound, the GI50 is 22.3 µM (inactive) with SNB-19, 5.11 µM (inactive) with SR, 22.9 µM (inactive) in the assay on TK-10 and 15.6 µM (inactive) with U-251.

Take `CN(C)C(=S)/N=c1\ss/c(=N\C(=S)N(C)C)n1-c1ccc(Cl)cc1`: the GI50 in the assay on A498, in the assay with A549, in the assay on CAKI-1, with HCT-116, in the assay with HL-60 and with K562 was > 100 µM (inactive) in each case. For the same compound, the GI50 with KM12 was > 100 µM (inactive); in the assay on NCI-H23 it was > 100 µM (inactive); in the assay with NCI-H460 it was > 100 µM (inactive); with OVCAR-4 it was > 10 µM (inactive); in the assay on OVCAR-8 it was > 100 µM (inactive); in the assay on SF-539, > 100 µM (inactive). In addition, the GI50 with SNB-19, in the assay on SR, in the assay with TK-10 and with U-251 was > 100 µM (inactive) each time.

For the compound `CC1=CC(=O)C(C)(C2=NC(C)(C)CO2)c2ccccc21` (centres undefined), the GI50 in the assay with A549, in the assay on CAKI-1, in the assay with HCT-116, in the assay with HL-60, in the assay with K562 and with KM12 was > 100 µM (inactive) throughout. Also, the GI50 in the assay on Malme-3M, with NCI-H23, with NCI-H460, in the assay on OVCAR-4, in the assay on OVCAR-8 and in the assay on SF-539 was > 100 µM (inactive) throughout. Moreover, the GI50 in the assay on SNB-19, with SR, in the assay on TK-10 and in the assay with U-251 was > 100 µM (inactive) in each case.

Turning to `N#CCC(=O)N/N=C(\C(=O)Nc1ccc(Cl)c(Cl)c1)C1CN(c2ccccc2)N=C1N` (centres undefined), the GI50 in the assay with A498, with A549, in the assay with HCT-116, in the assay on HL-60, in the assay with K562 and with KM12 was > 100 µM (inactive) in each case. Besides, the GI50 in the assay on Malme-3M, with NCI-H23, with NCI-H460, in the assay on OVCAR-4, with OVCAR-8 and with SF-539 was > 100 µM (inactive) each time. Further, the GI50 in the assay with SR, in the assay with TK-10 and in the assay with U-251 was > 100 µM (inactive) in each case.

As to `CCOC(=O)C(=O)Nc1c(CC)cccc1C(C)C`, the GI50 with A498, with A549, in the assay with CAKI-1, in the assay with HCT-116, in the assay on KM12 and in the assay on Malme-3M was > 100 µM (inactive) each time. Also, the GI50 in the assay on NCI-H23, with NCI-H460, in the assay with OVCAR-4, in the assay on OVCAR-8, with SF-539 and in the assay on SNB-19 was > 100 µM (inactive) in each case. In addition, the GI50 in the assay with SR was 0.0151 µM (active); in the assay on TK-10, > 100 µM (inactive); in the assay with U-251, > 100 µM (inactive).

Regarding `Cc1ccccc1NC(=O)C(=O)C(C#N)c1ccccc1C` (centres undefined), the GI50 with A498 was > 100 µM (inactive); in the assay with A549, > 100 µM (inactive); in the assay with CAKI-1, > 100 µM (inactive); in the assay on HCT-116 it was > 100 µM (inactive); with HL-60 it was 53.3 µM (inactive); in the assay on K562, 21.9 µM (inactive). For the same compound, the GI50 in the assay with KM12 was > 100 µM (inactive); with Malme-3M, > 100 µM (inactive); with NCI-H23 it was > 100 µM (inactive); with NCI-H460, 38.2 µM (inactive); in the assay on OVCAR-8, > 100 µM (inactive); in the assay on SF-539, > 100 µM (inactive). Moreover, the GI50 in the assay on SNB-19, in the assay with SR, in the assay on TK-10 and in the assay on U-251 was > 100 µM (inactive) in each case.

For the compound `N#Cc1c(N)c(C(=O)O)nn(-c2cccc(C(F)(F)F)c2)c1=O`, the GI50 with A498 is 41 µM (inactive); with A549, > 100 µM (inactive); with CAKI-1 it was > 100 µM (inactive); in the assay on HCT-116, > 100 µM (inactive); in the assay on HL-60, > 100 µM (inactive); with K562, 64.7 µM (inactive). For the same compound, the GI50 is > 100 µM (inactive) in the assay on KM12; 60 µM (inactive) with Malme-3M; > 100 µM (inactive) in the assay with NCI-H23; > 100 µM (inactive) in the assay with NCI-H460; > 100 µM (inactive) with OVCAR-8; > 100 µM (inactive) in the assay with SF-539. Further, the GI50 in the assay on SNB-19, in the assay with SR, in the assay with TK-10 and with U-251 was > 100 µM (inactive) throughout.

`Cn1cc(C(=O)C2CCCCC2)ccc1=O`: the GI50 in the assay with A549, with CAKI-1, in the assay on HCT-116, with HL-60, in the assay on K562 and with KM12 was > 100 µM (inactive) each time. For the same compound, the GI50 in the assay on Malme-3M, in the assay on NCI-H23, with NCI-H460, in the assay with OVCAR-4, in the assay on OVCAR-8 and with SF-539 was > 100 µM (inactive) throughout. The GI50 with SNB-19, in the assay with SR, in the assay on TK-10 and with U-251 was > 100 µM (inactive) in each case.

As for `Clc1ccc2cccc3c2c1C1OC3c2ccccc21` (centres undefined), the GI50 was > 100 µM (inactive) in the assay with A498; > 100 µM (inactive) with A549; > 100 µM (inactive) in the assay on HCT-116; > 100 µM (inactive) with HL-60; 66.7 µM (inactive) in the assay with K562; 71.4 µM (inactive) in the assay on KM12. Also, the GI50 is 34.4 µM (inactive) with Malme-3M; > 100 µM (inactive) with NCI-H23; > 100 µM (inactive) in the assay with OVCAR-8; > 100 µM (inactive) in the assay with SF-539; > 100 µM (inactive) in the assay with SNB-19; > 100 µM (inactive) in the assay with SR. In addition, the GI50 with TK-10 and in the assay on U-251 was > 100 µM (inactive) in each case.

`COC(=O)N/N=C(\c1nc2ccc(Cl)cc2nc1O)C(O)c1ccc([N+](=O)[O-])cc1` (centres undefined): the GI50 in the assay on A549, in the assay with CAKI-1, in the assay with HCT-116, in the assay with HL-60, in the assay with K562 and in the assay on KM12 was > 100 µM (inactive) in each case. The GI50 with Malme-3M, in the assay with NCI-H23, in the assay on NCI-H460, in the assay with OVCAR-4, with OVCAR-8 and in the assay with SF-539 was > 100 µM (inactive) in each case. Also, the GI50 was > 100 µM (inactive) in the assay with SNB-19, 30.5 µM (inactive) with SR and > 100 µM (inactive) with U-251.

These data come from ChEMBL document CHEMBL1201862, “PubChem BioAssay data set” (2004).
